“And” between values parts separate entries of the source, which are not always exact repeats. Equal values may be shown once.
Tested on: BDF1 mice, Adenocarcinoma 755 s.c., tumor weight T/C
Test: NCI In Vivo Anticancer Drug Screen. Data for tumor model Adenocarcinoma 755 (subcutaneous) in B6D2F1 (BDF1) mice
Settings: endpoint: mean tumor weight, higher = larger tumour
Method in brief: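 In vivo antitumor screen on a transplantable tumor line. Result equals the measure in compound-treated animals divided by the same measure in vehicle controls.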

[1] = dose: 12.5 mg/kg/injection, schedule: Q01DX011 (ip), vehicle: methylcellulose (MC)

SMILES: Cc1ccc(N2CCN(CCCN3CCN(c4ccc(Cl)cc4)CC3)CC2)cc1
- T/C (dose: 0.05 mg/kg/injection, schedule: Q01DX011 (ip), vehicle: carboxymethylcellulose (CMC)): 100 % of control
- T/C (dose: 0.09 mg/kg/injection, schedule: Q01DX011 (ip), vehicle: carboxymethylcellulose (CMC)): 66 % of control
- T/C (dose: 0.18 mg/kg/injection, schedule: Q01DX011 (ip), vehicle: carboxymethylcellulose (CMC)): 116 % of control
- T/C (dose: 0.37 mg/kg/injection, schedule: Q01DX011 (ip), vehicle: carboxymethylcellulose (CMC)): 104 % of control
- T/C (dose: 0.75 mg/kg/injection, schedule: Q01DX011 (ip), vehicle: methylcellulose (MC)): 38 % of control
- T/C (dose: 1.5 mg/kg/injection, schedule: Q01DX011 (ip), vehicle: methylcellulose (MC)): 37 % of control
- T/C [1]: 76 % of control
- T/C (dose: 25.0 mg/kg/injection, schedule: Q01DX011 (ip), vehicle: methylcellulose (MC)): 48 % of control
- T/C (dose: 50.0 mg/kg/injection, schedule: Q01DX011 (ip), vehicle: methylcellulose (MC)): 42 % of control and 46 % of control

SMILES: C=C(C)C(=O)OCC1CO1 (configuration not stated)
- T/C (dose: 100.0 mg/kg/injection, schedule: Q01DX011 (ip), vehicle: water): 90 % of control
- T/C (dose: 200.0 mg/kg/injection, schedule: Q01DX006 (ip), vehicle: water): 95 % of control
- T/C (dose: 200.0 mg/kg/injection, schedule: Q01DX011 (ip), vehicle: other): 102 % of control
- T/C (dose: 200.0 mg/kg/injection, schedule: Q01DX011 (ip), vehicle: water): 77 % of control
- T/C (dose: 300.0 mg/kg/injection, schedule: Q01DX006 (ip), vehicle: water): 86 % of control

SMILES: CCC(=O)N(CC)CC
- T/C (dose: 250.0 mg/kg/injection, schedule: Q01DX011 (ip), vehicle: other): 100 % of control

SMILES: O=C(Nc1ccc(C2=NC3CCCCC3N2)cc1)c1cccc(C(=O)Nc2ccc(C3=NC4CCCCC4N3)cc2)c1 (configuration not stated)
- T/C (dose: 15.0 mg/kg/injection, schedule: Q01DX011 (ip), vehicle: methylcellulose (MC)): 73 % of control
- T/C (dose: 30.0 mg/kg/injection, schedule: Q01DX011 (ip), vehicle: methylcellulose (MC)): 81 % of control
- T/C (dose: 60.0 mg/kg/injection, schedule: Q01DX011 (ip), vehicle: methylcellulose (MC)): 73 % of control
- T/C (dose: 120.0 mg/kg/injection, schedule: Q01DX011 (ip), vehicle: methylcellulose (MC)): 59 % of control

SMILES: O=S(=O)(F)c1ncnc2nc[nH]c12
- T/C (dose: 3.13 mg/kg/injection, schedule: Q01DX011 (ip), vehicle: methylcellulose (MC)): 75 % of control
- T/C (dose: 6.25 mg/kg/injection, schedule: Q01DX011 (ip), vehicle: methylcellulose (MC)): 113 % of control
- T/C [1]: 72 % of control
